According to patent US7279494B2, “Antimicrobial [3.1.0] bicyclohexylphenyl-oxazolidinone derivatives and analogues” (Pfizer Inc., priority 2003, dated 2007):
In brackets after ≈: the same amount, converted by molar mass.

Assays:
S. pneumoniae UC9912 = assay: MIC by standard agar dilution, S. pneumoniae UC9912; assay type: cell-based; settings: Streptococcus pneumoniae, UC9912, Mueller Hinton agar, incubated overnight at 35° C.
Outline: (§1)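 Agar dilution MIC: 2-fold serial compound dilutions in Mueller Hinton agar, spot-inoculated with ~10^4–10^5 cells from 0.5 McFarland suspensions diluted 1:20 in TSB. Incubated overnight at 35 °C; MIC (μg/mL) taken as lowest concentration preventing visible growth.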

H. influenzae 30063 = assay: MIC by standard agar dilution, H. influenzae 30063; assay type: cell-based; settings: Mueller Hinton agar, incubated overnight at 35° C.; for MIC: Haemophilus influenzae, 30063, agar dilution, read-out: H. influenzae 30063 MIC
Outline: as §1

S. aureus UC9213 = assay: MIC by standard agar dilution, S. aureus UC9213; assay type: cell-based; settings: Staphylococcus aureus, UC9213, Mueller Hinton agar, incubated overnight at 35° C.
Outline: as §1

| Compound | MIC (S. pneumoniae UC9912) | melting point | MIC (H. influenzae 30063) | MIC (S. aureus UC9213) | H. influenzae 30063 MIC (H. influenzae 30063; agar dilution) |
| --- | --- | --- | --- | --- | --- |
| CC(=O)NC[C@H]1CN(c2ccc([C@H]3[C@@H]4CSC[C@@H]43)c(F)c2)C(=O)O1 [Example 1, N-[((5S)-3-{3-fluoro-4-[exo-(1R,5S)-3-thiabicyclo[3.1.0]hex-6-yl]phenyl}-2-oxo-1,3-oxazolidin-5-yl)methyl]acetamide] | 1 µg/mL (≈ 2.85 µM) | 177 to 178 °C | ≤ 32 µg/mL | 4 µg/mL (≈ 11.4 µM) | – |
| O=C(NC[C@H]1CN(c2ccc([C@H]3[C@@H]4CS(=O)(=O)C[C@@H]43)c(F)c2)C(=O)O1)C1CC1 [Example 53, N-[((5S)-3-{3-fluoro-4-[exo-(1R,5S)-3,3-dioxido-3-thiabicyclo[3.1.0]hex-6-yl]phenyl}-2-oxo-1,3-oxazolidin-5-yl)methyl]cyclopropanecarboxamide] | 2 µg/mL (≈ 4.9 µM) | – | 4 µg/mL (≈ 9.79 µM) | 4 µg/mL (≈ 9.79 µM) | – |
| O=C(CO)NC[C@H]1CN(c2ccc([C@H]3[C@@H]4C[S+]([O-])C[C@@H]43)c(F)c2)C(=O)O1 (stereo partly drawn) [Example 66, N-[((5S)-3-{3-fluoro-4-[exo-(1R,5S)-3-oxido-3-thiabicyclo[3.1.0]hex-6-yl]phenyl}-2-oxo-1,3-oxazolidin-5-yl)methyl]-2-hydroxyacetamide] | 2 µg/mL (≈ 5.23 µM) | – | 8 µg/mL (≈ 20.9 µM) | 4 µg/mL (≈ 10.5 µM) | – |
| CCC(=O)NC[C@H]1CN(c2ccc([C@H]3[C@@H]4CN(C=O)C[C@@H]43)c(F)c2)C(=O)O1 [Example 22, N-[((5S)-3-{3-fluoro-4-[exo-(1R,5S)-3-formyl-3-azabicyclo[3.1.0]hex-6-yl]phenyl}-2-oxo-1,3-oxazolidin-5-yl)methyl]propanamide] | 0.5 µg/mL (≈ 1.33 µM) | – | 8 µg/mL (≈ 21.3 µM) | 1 µg/mL (≈ 2.66 µM) | – |
| CC(=O)NC[C@H]1CN(c2ccc([C@H]3[C@@H]4CN(C=O)C[C@@H]43)c(F)c2)C(=O)O1 [Example 8, N-[((5S)-3-{3-fluoro-4-[exo-(1R,5S)-3-formyl-3-azabicyclo[3.1.0]hex-6-yl]phenyl}-2-oxo-1,3-oxazolidin-5-yl)methyl]acetamide] | 1 µg/mL (≈ 2.77 µM) | – | 8 µg/mL (≈ 22.1 µM) | 4 µg/mL (≈ 11.1 µM) | – |
| CCC(=O)NC[C@H]1CN(c2ccc([C@H]3[C@@H]4CN(C(=O)NC)C[C@@H]43)c(F)c2)C(=O)O1 [Example 24, exo-(1R,5S)-6-(4-{(5S)-5-[(propanoylamino)methyl]-2-oxo-1,3-oxazolidin-3-yl]-2-fluorophenyl)-3-azabicyclo[3.1.0]hexane-3-methylcarboxamide] | 2 µg/mL (≈ 4.95 µM) | – | 16 µg/mL (≈ 39.6 µM) | 4 µg/mL (≈ 9.89 µM) | – |
| CCC(=O)NC[C@H]1CN(c2ccc([C@H]3[C@@H]4CS(=O)(=O)C[C@@H]43)c(F)c2)C(=O)O1 [Example 51, N-[((5S)-3-{4-[exo-(1R,5S)-3,3-dioxido-3-thiabicyclo[3.1.0]hex-6-yl]-3-fluorophenyl}-2-oxo-1,3-oxazolidin-5-yl)methyl]propanamide] | 1 µg/mL (≈ 2.52 µM) | – | 8 µg/mL (≈ 20.2 µM) | 2 µg/mL (≈ 5.04 µM) | – |
| CCC(=O)NC[C@H]1CN(c2ccc([C@H]3[C@@H]4C[S+]([O-])C[C@@H]43)c(F)c2)C(=O)O1 (stereo partly drawn) [Example 50, N-[((5S)-3-{3-fluoro-4-[exo-(1R,5S)-3-oxido-3-thiabicyclo[3.1.0]hex-6-yl]phenyl}-2-oxo-1,3-oxazolidin-5-yl)methyl]proyanamide] | 1 µg/mL (≈ 2.63 µM) | – | 4 µg/mL (≈ 10.5 µM) | 2 µg/mL (≈ 5.26 µM) | – |
| CCC(=O)NC[C@H]1CN(c2cc(F)c([C@H]3[C@@H]4CN(C(N)=O)C[C@@H]43)c(F)c2)C(=O)O1 [Example 63, exo-(1R,5S)-6-(4-{(5S)-5-[(propanoylamino)methyl]-2-oxo-1,3-oxazolidin-3-yl}-2,6-difluorophenyl)-3-azabicyclo[3.1.0]hexane-3-carboxamide] | 1 µg/mL (≈ 2.45 µM) | – | 8 µg/mL (≈ 19.6 µM) | 2 µg/mL (≈ 4.9 µM) | – |
| CC(=O)NC[C@H]1CN(c2ccc([C@H]3[C@@H]4CN(CCF)C[C@@H]43)c(F)c2)C(=O)O1 [Example 46, N-[((5S)-3-{3-fluoro-4-[exo-(1R,5S)-3-(2-fluoroethyl)-3-azabicyclo[3.1.0]hex-6-yl]phenyl}-2-oxo-1,3-oxazolidin-5-yl)methyl]acetamide] | 2 µg/mL (≈ 5.27 µM) | – | 16 µg/mL (≈ 42.2 µM) | 8 µg/mL (≈ 21.1 µM) | – |
| CCC(=O)NC[C@H]1CN(c2cc(F)c([C@H]3[C@@H]4CN(C(=O)CO)C[C@@H]43)c(F)c2)C(=O)O1 [Example 64, N-[((5S)-3-{3,5-difluoro-4-[exo-(1R,5S)-3-glycoloyl-3-azabicyclo[3.1.0]hex-6-yl]phenyl]-2-oxo-1,3-oxazolidin-5-yl)methyl]propanamide] | 2 µg/mL (≈ 4.72 µM) | – | 8 µg/mL (≈ 18.9 µM) | 4 µg/mL (≈ 9.45 µM) | – |
| CC(F)(F)C(=O)NC[C@H]1CN(c2cc(F)c([C@H]3[C@@H]4CS(=O)(=O)C[C@@H]43)c(F)c2)C(=O)O1 [Example 60, 2,2-difluoro-N-[((5S)-3-{3,5-difluoro-4-[exo-(1R,5S)-3,3-dioxido-3-thiabicyclo[3.1.0]hex-6-yl]phenyl}-2-oxo-1,3-oxazolidin-5-yl)methyl]propanamide] | 2 µg/mL (≈ 4.44 µM) | – | 16 µg/mL (≈ 35.5 µM) | 8 µg/mL (≈ 17.8 µM) | – |
| NC(=O)[C@H]1CN(c2ccc([C@H]3[C@@H]4CS(=O)(=O)C[C@@H]43)c(F)c2)C(=O)O1 [Example 20, (5R)-3-{4-[exo-(1R,5S)-3,3-dioxido-3-thiabicyclo[3.1.0]hex-6-yl]-3-fluorophenyl}-2-oxo-1,3-oxazolidine-5-carboxamide] | 2 µg/mL (≈ 5.64 µM) | – | > 64 µg/mL | 2 µg/mL (≈ 5.64 µM) | >64 µg/mL |
| CC(=O)NC[C@H]1CN(c2ccc([C@H]3[C@@H]4CN(C(=O)C(C)(C)O)C[C@@H]43)c(F)c2)C(=O)O1 [Example 32, N-[((5S)-3-{3-fluoro-4-[exo-(1R,5S)-3-(2-hydroxy-2-methyl-propanoyl)-3-azabicyclo[3.1.0]hex-6-yl]phenyl}-2-oxo-1,3-oxazolidin-5-yl)methyl]acetamide] | 0.5 µg/mL (≈ 1.19 µM) | – | 8 µg/mL (≈ 19.1 µM) | 2 µg/mL (≈ 4.77 µM) | – |
| CC(=O)NC[C@H]1CN(c2ccc([C@H]3[C@@H]4CN(C(=O)[C@@H]5CCCO5)C[C@@H]43)c(F)c2)C(=O)O1 [Example 42, N-[((5S)-3-{3-fluoro-4-[exo-(1R,5S)-3-(tetrahydrofaran-2-(S)-carbonyl)-3-azabicyclo[3.1.0]hex-6-yl]phenyl}-2-oxo-1,3-oxazolidin-5-yl)methyl]acetamide] | 4 µg/mL (≈ 9.27 µM) | – | 32 µg/mL (≈ 74.2 µM) | 8 µg/mL (≈ 18.5 µM) | – |
